{"source": "paper PMC9238271", "about": "“The quorum sensing peptide EntF* promotes colorectal cancer metastasis in mice: a new factor in the host-microbiome interaction” (BMC Biology, 2022)", "key": {"[1]": {"assay": "EntF production in germ-free mice: EntF* in colon content and serum", "type": "in vivo, germ-free female C57BL6 mice", "description": "Fifty microliters of serum were mixed with 150 μL 0.5% formic acid in acetonitrile. After sonication for 5 min, samples were vortexed for 5 s, then heated for 30 s at 100 °C. The solution was vortexed and centrifuged for 20 min at 20,000g at 4 °C. The supernatant was purified using solid phase extraction (SPE) on HyperSep C18 plates (Thermo Fisher Scientific, Belgium), previously conditioned with acetonitrile and equilibrated with 75% acetonitrile in water, containing 0.375% formic acid. After loading 150 μL of each sample, 120 μL eluent were collected and organic solvents evaporated using nitrogen (1 L/min) for 5 min. The resulting samples were further diluted with 30 μL of BSA-based anti-adsorption solution, and analyzed by LC-MS.\nFor EntF and EntF* colon content analysis, 50 mg of colon content were suspended in 100 μL of a 2% hydrochloric acid solution, vortexed and sonicated for 30 s. The suspension was centrifuged for 1 min at 3000g, and 50 μL of the supernatant was heated at 100 °C for 1 min and cooled on ice for 1 min. Samples were centrifuged again for 1 min at 10,000g, and 30 μL of supernatant was added to a 900 μL of a 3% DMSO solution in acetonitrile acidified with 0.1% formic acid (equilibration solution). Nine hundred microliters of the diluted samples was loaded on a HILIC amide SPE MonoSpin column previously conditioned with acetonitrile and equilibrated with the equilibration solution. Samples were eluted using a mixture of 75/20/5 (V/V/V) H2O/acetonitrile/DMSO acidified with 0.1% formic acid.\nEntF* was detected and quantified on a Waters Acquity® UPLC H-class system, connected to a Waters Xevo™ TQ-S triple quadrupole mass spectrometer with electrospray ionization (operated in positive ionization mode). Autosampler tray and column oven were kept at 10 ± 5 °C and 60 ± 5 °C, respectively. Chromatographic separation was achieved on a Waters Acquity® UPLC BEH Peptide C18 column (300 Å, 1.7 μm, 2.1 mm × 100 mm). The mobile phases consisted of 93/2/5 water/acetonitrile/DMSO (V/V/V) containing 0.1% formic acid (mobile phase A) and 2/93/5 water/acetonitrile/DMSO (V/V/V) containing 0.1% formic acid (mobile phase B), and the flow rate was set to 0.5 mL/min. A 10-μL aliquot from each sample was injected. The gradient program started with 80% of mobile phase A for 1 min, followed by a linear gradient to 40% of mobile phase A for 3.5 min. Gradient was then changed to 14.2% mobile phase A at 5 min, followed by a 1 min equilibration, before starting conditions were applied. EntF* retention time was between 4.25 and 4.45 min.\nMice were obtained from the Ghent Germfree and Gnotobiotic mouse facility (LA1400637), maintained in a sterile environment under controlled conditions (light–dark cycle with light from 7:00 h to 17:00 h, temperature 21–25 °C, and humidity 45–65%). Twelve germ-free female C57BL6 mice were divided into 3 groups and each group (n = 4) was kept in a separate cage. At day 0, the placebo group was treated with the cell medium (BHI), the control group received a mixture of 3 EntF-negative E. faecium strains (NCIMB 10415; W54 and LMG S-28935 each 10^8 CFU per strain) suspended in 300 μL of BHI, while the test group received a mixture of 3 EntF-producing E. faecium strains (LMG 23236; T-110 and ATCC 8459 each 10^8 CFU/strain) suspended in 300 μL of BHI. […] Serum samples were stored at − 80 °C and subsequently analyzed for the presence of EntF* using LC1-MS1. […] Samples were further analyzed for the presence of EntF* using LC1-MS1."}, "[2]": {"test_system": "EntF*-mediated E-cadherin downregulation in HCT-8 cells", "assay": "Antagonist activity analysis by Western blot", "type": "cell-based", "description": "HCT-8, HT-29, and HT-116 cells were grown in DMEM medium supplied with 10% fetal bovine serum (FBS) and 1% penicillin-streptomycin. Caco-2 cells were grown in DMEM medium supplied with 10% FBS, 1% non-essential amino acid NEAA), and 1% penicillin-streptomycin. Cells were cultured at 37 °C and 5% CO2. As cells reached confluency, they were detached using 0.25% Trypsin-EDTA.\nFor Western blot analyses, HCT-8 (n = 15), HCT-116 (n = 12), Caco-2 (n = 6), and HT-29 (n = 12) cells were seeded in 6-well plates at a density of 1 × 10^6 cells/well. Twenty-four hours after seeding, all cell lines were treated with 1 μM EntF* or a placebo solution. HCT-8 cells were also tested for responsiveness to 1 μM EntF* synthetic alanine-derived analogs. For antagonist activity analysis, HCT-8 cells were treated with 1 μM Nef-M1 or 1 μM EntF*A1 alone or in combination with 500 nM EntF*. After 24 h, cells were detached from the surface and lysed in RIPA buffer (Thermo Scientific). Protein concentration was determined using the modified Lowry protein assay kit (Thermo Scientific), according to the manufacturer’s instructions. […]\nThe Kolmogorov-Smirnov test was used to assess if data obtained were normally distributed. […] Cohen’s d values were calculated as a measure of the effect size when similar standard deviations for both groups were found, and sample sizes were the same."}}, "data": [{"smiles": "CC(C)C[C@@H]1NC(=O)[C@H](CO)NC(=O)[C@H](Cc2ccccc2)NC(=O)[C@H](C(C)C)NC(=O)[C@@H](NC(=O)[C@H](CCC(=O)O)NC(=O)[C@@H](NC(=O)[C@H](CC(C)C)NC(=O)[C@H](CC(N)=O)NC(=O)[C@@H](N)CO)C(C)C)CSSC[C@@H](C(=O)N[C@@H](CC(N)=O)C(=O)O)NC(=O)[C@H](CCCCN)NC(=O)[C@H](CCCCN)NC(=O)[C@H](Cc2ccccc2)NC1=O", "note": "(single isomer, unassigned) [EntF*]", "values": [{"measurement": "tissue level at time molar at 96 h", "setting": "[1]; female, C57BL6, mouse, colon content, germ-free mice four days after oral gavage of 3 EntF-producing E. faecium strains (10^8 CFU/strain), LoD 1.9 pmol/g, LC1-MS1, mean ± SEM, n = 4, read-out: EntF* concentration in colon content", "result": "0.01 ± 0.0032", "unit": "nmol/g"}, {"measurement": "EntF* in serum of the test group", "setting": "[1]; germ-free mice four days after oral gavage of EntF-producing E. faecium strains, LC1-MS1", "result": "detected"}, {"measurement": "EntF* in feces, Tot. Av.", "setting": "[1]; gnotobiotic mice, feces, mean of 4 test mice", "result": 9.726, "unit": "pmol/g"}, {"measurement": "EntF* serum concentration, Maximum Likelihood Function estimate ^µ", "setting": "[1]; gnotobiotic mice, serum, 4 test mice, censored at yL 80 pM", "result": 90.7384, "unit": "pM"}, {"measurement": "EntF* serum concentration, average", "setting": "[1]; gnotobiotic mice, serum, average of the 3 test mice above LoD", "result": 97.3333, "unit": "pM"}, {"measurement": "E-cadherin level, EntF* only", "setting": "[2]; HCT-8 cells, EntF* only, 24 h, relative to control, n = 15", "result": 62, "unit": "%"}, {"measurement": "Relative E-cadherin level (% of control), mean", "setting": "[2]; mean of the replicates", "result": 62.0}]}]}
